In PubChem BioAssay (NCI):
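Cells were grown in 96-well plates and exposed to each compound for 48 hours at five concentrations; endpoints were interpolated linearly between bracketing concentrations, or set to the highest concentration if not reached. GI50: concentration for 50% inhibition of growth. TGI: total growth inhibition.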

What was measured:
Test in all cases: NCI tumour cell line growth inhibition, 48 h
TK-10 renal = test system: TK-10 renal
EKVX NSCLC = test system: EKVX NSCLC
COLO 205 colon = test system: COLO 205 colon
SW-620 colon = test system: SW-620 colon
RXF 393 renal = test system: RXF 393 renal
OVCAR-8 ovarian = test system: OVCAR-8 ovarian
SK-MEL-5 melanoma = test system: SK-MEL-5 melanoma
MOLT-4 leukemia = test system: MOLT-4 leukemia
OVCAR-5 ovarian = test system: OVCAR-5 ovarian
HCT-15 colon = test system: HCT-15 colon

Structure (SMILES)	GI50 (TK-10 renal) [µM]	TGI (TK-10 renal) [µM]	GI50 (EKVX NSCLC) [µM]	TGI (EKVX NSCLC) [µM]	GI50 (COLO 205 colon) [µM]	TGI (COLO 205 colon) [µM]	GI50 (SW-620 colon) [µM]	TGI (SW-620 colon) [µM]	GI50 (RXF 393 renal) [µM]	TGI (RXF 393 renal) [µM]	GI50 (OVCAR-8 ovarian) [µM]	TGI (OVCAR-8 ovarian) [µM]	GI50 (SK-MEL-5 melanoma) [µM]	TGI (SK-MEL-5 melanoma) [µM]	GI50 (MOLT-4 leukemia) [µM]	TGI (MOLT-4 leukemia) [µM]	GI50 (OVCAR-5 ovarian) [µM]	TGI (OVCAR-5 ovarian) [µM]	GI50 (HCT-15 colon) [µM]	TGI (HCT-15 colon) [µM]
CCCCCCCCNc1cc2c3c(c1)CCCN3CCC2	5.69	22	0.559	15.3	1.87	4.76	2.14	13.3	4.07	17.9	1.87	20.3	1.49	3.14	1.09	> 100	3.88	17.5	10.5	38.5
COc1ccc(-c2cc3c(c4cc(OC)ccc24)C(=O)OC3=O)cc1		> 100		> 100		> 100		> 100		> 100		> 100		> 100		> 100		> 100		> 100
O.O.[NH-]C1(C(=O)O)CCCC1.[NH-]C1(C(=O)O)CCCC1.[Ni+2]	> 100	> 100		> 100		> 100		> 100		> 100		> 100		> 100		> 100		> 100		> 100
N#CC1(C#N)C2(c3ccccc3)OC(c3ccccc3)(c3cc4ccccc4cc32)C1(C#N)C#N		41		32.1		18.1		9.72		13.8		26.8		27.8		4.88		29.3		26.7
N=C1C(c2nc3ccccc3s2)=C(O)CN1c1ccc(F)c(Cl)c1	22.7	> 100	48.5	> 100	> 100	> 100	58.7	> 100	7.38	33.9	12.6	33.4	14.6	49.5	19.6	> 100	35.9	> 100	0.999	> 100
COc1cc(Br)c(C=Nc2cccc3cc(OC)c(OC)cc23)cc1OC		> 100		> 100		> 100		> 100		50.3		> 100		> 100		> 100		> 100		> 100
CS(=O)(=O)OC1CCC2(C#N)CCC1C2=O (configuration not stated)		> 100		> 100		> 100				> 100		> 100		> 100		> 100		> 100		> 100
C=C1C(=O)O[C@@H]2C[C@@H](C)[C@@H]3C=CC(=O)[C@@]3(C)[C@@H](O)[C@H]12		11.8		8.89		5.11		2.59		1.35		5.71		2.67		3.36		3.37		9.54
NC(=O)C(=O)N/N=C1\C(=O)N(c2ccc(Cl)cc2Cl)C(=O)C1C(=O)Nc1ccc(Cl)cc1Cl (configuration not stated)		> 100		> 100		> 100		> 100		> 100		> 100		> 100		> 100		> 100		> 100
CN(CCO)CC[C@H](CSc1ccccc1)Nc1ccc(S(=O)(=O)NC(=O)c2ccc(N3CCC([C@@H](O)c4ccccc4-c4ccc(Cl)cc4)CC3)cc2)cc1S(=O)(=O)C(F)(F)F	5.2	19.2	20.4	> 100	1.46	4.5	2.43	8.91	0.311	1.54	11.5	> 100	1.69	3.25	0.0719	1.11	4.6	> 50.4	> 100	> 100
CCN(CC)c1c(C(=O)/C=C/c2ccc(Cl)cc2)c(-c2ccccc2)nn(C)c1=O		4		6.87		4.01		4.6		2.8		3.1		3.2		5.06		3.23		3.31
OC(Cc1ccncc1)C(Cl)(Cl)Cl (configuration not stated)	> 100	> 100	86.3	> 100	> 100	> 100	> 100	> 100	> 100	> 100	> 100	> 100			0.0988	> 100	> 100	> 100	> 100	> 100
CC(C)=CC1C[C@H](C2CC=C3C2(C)CCC2[C@@]3(C)C(=O)CC3[C@]2(C)C=CC(=O)[C@]3(C)CO)CO1 (some centres not stated)		52.4		55.1		27.2		> 31.7		23.2		> 24.4		25		8.43		37.8		40.5
O=C(Oc1cccc(F)c1OC(=O)c1cccc(O)c1)c1cccc(O)c1	98.6	> 100	58.7	> 100	24.4	73.7	37.4	> 100	12.1	73.6	22.8	> 100	6.9	> 100	15.9	> 100	> 100	> 100	15.3	> 100
O=C(O)CCCSC(=O)Nc1ccc(N=Nc2ccccc2)cc1		> 100		> 100		> 100		> 100		> 100		> 100				> 100		> 100		> 100
COc1ccc(C23C(=O)c4ccccc4N2O[C@H]2C(=O)N(c4ccccc4)C(=O)[C@H]23)cc1 (some centres not stated)		> 100		> 100		> 100		> 100		> 100		> 100		> 100		> 100		> 100		> 100
C=CCNC(=O)N(CCCCC(NC(C)=O)C(=O)NCc1ccccc1)Cc1ccccc1 (configuration not stated)		> 100		> 100		> 100		> 100		> 100		> 100		> 100		> 100		> 100		> 100
